Experiment [1] has as its target T1, HDAC4 (Homo sapiens, UniProt P56524).
T1 construct: purchased BPS Bioscience 50064
Nature of the experiment: HDAC4 fluorogenic enzyme assay kit (BPS Bioscience), cell-free. Type of experiment: biochemical. Conditions: 0.001-10 μmol/L inhibitor.

The target of experiment [2] is T2, HDAC5 (Homo sapiens, UniProt Q9UQL6).
T2 construct: purchased BPS Bioscience 50065
In words: HDAC5 fluorogenic enzyme assay kit (BPS Bioscience), cell-free. It counts as biochemical. Conditions: 0.001-10 μmol/L inhibitor. Here is the method:
Enzyme activity measurements of class I and IIa HDACs were performed using a cell‐free system and according to a method previously described.16 We used fluorogenic HDAC1 (#50061), HDAC2 (#50062), HDAC3 (#50063), HDAC4 (#50064), HDAC5 (#50065), HDAC6 (#50076), HDAC7 (#50067), HDAC8 (#50068) and HDAC9 (#50069) enzyme assay kits from BPS Bioscience (San Diego, CA, USA). To test the enzyme activity of LMK235, 0.001, 0.003, 0.01, 0.03, 0.1, 0.3, 1, 3 and 10 μmol/L concentrations were used. For the IC50 calculations, every data point was normalized to the vehicle (100% activity). The normalized data were fitted with a Hill non‐linear curve fit (OrigionPro 9.0).

Experiment [3] addresses T3, HDAC6 (Homo sapiens, UniProt Q9UBN7).
T3 construct: purchased BPS Bioscience 50076
In words: HDAC6 fluorogenic enzyme assay kit (BPS Bioscience), cell-free. It counts as biochemical. Conditions: 0.001-10 μmol/L inhibitor.

Experiment [4] addresses T4, HDAC8 (Homo sapiens, UniProt Q9BY41).
T4 construct: purchased BPS Bioscience 50068
Nature of the experiment: HDAC8 fluorogenic enzyme assay kit (BPS Bioscience), cell-free. It counts as biochemical. Conditions: 0.001-10 μmol/L inhibitor.

Experiment [5] concerns the target T5, HDAC9 (Homo sapiens, UniProt Q9UKV0).
T5 construct: purchased BPS Bioscience 50069
Nature of the experiment: HDAC9 fluorogenic enzyme assay kit (BPS Bioscience), cell-free. Conditions: 0.001-10 μmol/L inhibitor. Type of experiment: biochemical.

The test system of experiment [6] is AT1 and ACE1 mRNA. Nature of the experiment: AT1 and ACE1 mRNA (qRT-PCR) in aortas of angiotensin II-infusion mice. It counts as in vivo. Here is the method:
All animal procedures were approved by the Animal Experimental Committee of Chonnam National University Medical School (CNU IACUC‐H‐2014‐47) and carried out in accordance with the Guide for the Care and Use of Laboratory Animals (US National Institutes of Health Publications, 8th edition, 2011). CD‐1 mice (8 weeks old, 30‐35 g) were used in this study. Hypertension was induced by angiotensin II (Ang II, 1.3 mg/kg/day) infusion using 14‐day micro‐osmotic pumps (Alzet, model 1002; infusion rate of 0.25 μL/h) or saline alone. Ang II osmotic pumps were implanted subcutaneously after the injection of ketamine (120 mg/kg) and xylazine (6.2 mg/kg). One week after Ang II infusion, mice were administered LMK235 (1 or 3 mg/kg/day) or vehicle (dimethylsulphoxide [DMSO]) via intraperitoneal injection for 7 days. Mice were divided into three groups (n = 10‐12 per group): sham + vehicle, Ang II + vehicle, and Ang II + LMK235.
(§1) Total RNA from aortic tissue was isolated with TRIzol reagent (Invitrogen Life Technologies), and 1 μg of RNA was used for the reverse transcription reaction with TOPscript RT DryMIX (Enzynomics, South Korea). Quantification of mRNA levels was performed with the SYBR Green PCR kit (Enzynomics, South Korea).
In general terms: In qPCR the cycle at which signal appears reflects the starting amount.

Experiment [7] concerns rat aortic rings. In words: Isometric tension: relaxation of U46619-induced contraction in rat aortic rings. Set-up: species or system Sprague‐Dawley rats. Conditions: U46619 30 nmol/L, LMK235 cumulative 0.1-100 μmol/L. From the text: Male Sprague‐Dawley rats were purchased from Orient Bio (Gyeonggi‐do, South Korea). The thoracic aortas and mesenteric arteries were excised and immersed in an ice‐cold, modified Krebs solution composed of NaCl (115 mmol/L), KCl (4.7 mmol/L), CaCl2 (2.5 mmol/L), MgCl2 (1.2 mmol/L), NaHCO3 (25 mmol/L), KH2PO4 (1.2 mmol/L) and dextrose (10 mmol/L). Mesenteric arteries are secondary branches of the main mesenteric trunk. The aortas and mesenteric arteries were cleaned by removing adherent connective tissue, soaked in the Krebs‐bicarbonate solution and cut into four ring segments (3.5 mm in length), as described previously.14 Some rings were denuded of endothelium by gently rubbing the internal surface with the edge of the forceps. Each aortic ring was suspended in a water‐jacketed organ bath (6 mL) maintained at 37°C and aerated with a mixture of 95% O2 and 5% CO2. Each ring was connected to an isometric force transducer (Danish Myo Technology, Skejbyparken, Aarhus N, Denmark). Rings were stretched to an optimal resting tension of 2.0 g, which was maintained throughout the experiment. Each ring was equilibrated in the organ bath solution for 90 minutes before the experiment involving the contractile response to 50 mmol/L of KCl addition. […]

The subject of experiment [8] is HUVECs. In words: Nitric oxide production in HUVECs (DAF-FM DA fluorescence). Type of experiment: cell-based, Human. Conditions: 1 μmol/L, 24 h. Here is the method: A10 vascular smooth muscle cells (VSMCs) were incubated with Dulbecco's modified Eagle medium (DMEM) with 4500 mg/L glucose containing 10% foetal bovine serum (FBS). Passages were carried out every 2 or 3 days. VSMCs were maintained in DMEM in the presence of 10% FBS with low glucose (1000 mg/L). Human umbilical vein endothelial cells (HUVECs) were obtained from Gibco (Waltham, MA, USA). HUVECs were grown in an endothelial cell basal medium (EBM) with EGM‐2 bullet kit (Lonza, Walkersville, MD) and maintained at 37°C under 5% CO2. Cells were cultured for 5‐7 passages.
We used a nitric oxide‐sensitive fluorescence probe, 4‐amino‐5‐methylamino‐2′,7′‐difluorescein diacetate (DAF‐FM DA, Cayman), for nitric oxide detection. HUVECs were seeded on coverslips in 12‐well plates (1.5 × 10^5/mL). Cells, serum‐starved with EBM for 16 hour, were treated with LMK235 (1 μmol/L) or L‐NAME (250 μmol/L) for 24 hour and incubated with DAF‐FM DA (2.5 μmol/L) for 45 minutes. Next, the cells were fixed with 70% ethanol for 45 minutes and mounted using Prolog Gold antifade reagent and DAPI (Invitrogen, USA).

Experiment [9] concerns A10 cells. In words: qRT-PCR in CaMKIIα-transfected A10 cells. It counts as cell-based, rat. Here is the method:
A10 cells were seeded into 12‐well dishes. A10 cells were transfected with the indicated concentrations of pCMV‐SPORT6‐CaMKIIα. After 24 hours of transfection, total RNA was extracted and quantitative real time polymerase chain reaction (qRT‐PCR) was performed. For knockdown of HDAC5, rat HDAC5 siRNA or sicontrol was used in A10 cells using RNAiMAX reagent according to the manufacturer's guidelines. A concentration of 100 nmol/L of siRNA was used.
as §1

Structures are written as SMILES.

T1 sequence (P56524 whole entry): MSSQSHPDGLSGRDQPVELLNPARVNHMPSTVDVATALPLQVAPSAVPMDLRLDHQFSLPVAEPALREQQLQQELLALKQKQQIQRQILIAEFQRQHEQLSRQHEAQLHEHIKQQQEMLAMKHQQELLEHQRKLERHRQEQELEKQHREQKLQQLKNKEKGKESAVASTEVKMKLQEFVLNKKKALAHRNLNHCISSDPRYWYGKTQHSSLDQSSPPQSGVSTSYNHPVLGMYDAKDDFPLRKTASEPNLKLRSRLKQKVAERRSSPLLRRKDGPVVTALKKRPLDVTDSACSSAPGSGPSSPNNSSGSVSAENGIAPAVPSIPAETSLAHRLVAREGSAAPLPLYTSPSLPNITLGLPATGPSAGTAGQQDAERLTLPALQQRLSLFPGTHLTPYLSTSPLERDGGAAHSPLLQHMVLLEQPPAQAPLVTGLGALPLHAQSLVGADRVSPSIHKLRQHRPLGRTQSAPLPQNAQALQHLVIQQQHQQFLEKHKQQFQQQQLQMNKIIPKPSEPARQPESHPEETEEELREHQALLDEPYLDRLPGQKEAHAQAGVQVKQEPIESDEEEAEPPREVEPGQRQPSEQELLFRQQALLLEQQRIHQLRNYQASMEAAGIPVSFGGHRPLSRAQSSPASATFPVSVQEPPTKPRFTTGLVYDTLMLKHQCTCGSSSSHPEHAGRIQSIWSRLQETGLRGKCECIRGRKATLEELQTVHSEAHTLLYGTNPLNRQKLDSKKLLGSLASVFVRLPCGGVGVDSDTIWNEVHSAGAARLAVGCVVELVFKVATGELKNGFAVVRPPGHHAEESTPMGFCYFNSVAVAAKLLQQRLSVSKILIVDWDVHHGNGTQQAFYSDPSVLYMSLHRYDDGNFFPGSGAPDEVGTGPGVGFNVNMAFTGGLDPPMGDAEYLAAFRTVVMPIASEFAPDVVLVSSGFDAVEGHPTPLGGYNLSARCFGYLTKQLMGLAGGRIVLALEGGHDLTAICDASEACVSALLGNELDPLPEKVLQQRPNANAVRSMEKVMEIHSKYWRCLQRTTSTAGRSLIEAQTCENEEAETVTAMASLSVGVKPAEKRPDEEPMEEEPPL
T2 sequence (Q9UQL6 whole entry): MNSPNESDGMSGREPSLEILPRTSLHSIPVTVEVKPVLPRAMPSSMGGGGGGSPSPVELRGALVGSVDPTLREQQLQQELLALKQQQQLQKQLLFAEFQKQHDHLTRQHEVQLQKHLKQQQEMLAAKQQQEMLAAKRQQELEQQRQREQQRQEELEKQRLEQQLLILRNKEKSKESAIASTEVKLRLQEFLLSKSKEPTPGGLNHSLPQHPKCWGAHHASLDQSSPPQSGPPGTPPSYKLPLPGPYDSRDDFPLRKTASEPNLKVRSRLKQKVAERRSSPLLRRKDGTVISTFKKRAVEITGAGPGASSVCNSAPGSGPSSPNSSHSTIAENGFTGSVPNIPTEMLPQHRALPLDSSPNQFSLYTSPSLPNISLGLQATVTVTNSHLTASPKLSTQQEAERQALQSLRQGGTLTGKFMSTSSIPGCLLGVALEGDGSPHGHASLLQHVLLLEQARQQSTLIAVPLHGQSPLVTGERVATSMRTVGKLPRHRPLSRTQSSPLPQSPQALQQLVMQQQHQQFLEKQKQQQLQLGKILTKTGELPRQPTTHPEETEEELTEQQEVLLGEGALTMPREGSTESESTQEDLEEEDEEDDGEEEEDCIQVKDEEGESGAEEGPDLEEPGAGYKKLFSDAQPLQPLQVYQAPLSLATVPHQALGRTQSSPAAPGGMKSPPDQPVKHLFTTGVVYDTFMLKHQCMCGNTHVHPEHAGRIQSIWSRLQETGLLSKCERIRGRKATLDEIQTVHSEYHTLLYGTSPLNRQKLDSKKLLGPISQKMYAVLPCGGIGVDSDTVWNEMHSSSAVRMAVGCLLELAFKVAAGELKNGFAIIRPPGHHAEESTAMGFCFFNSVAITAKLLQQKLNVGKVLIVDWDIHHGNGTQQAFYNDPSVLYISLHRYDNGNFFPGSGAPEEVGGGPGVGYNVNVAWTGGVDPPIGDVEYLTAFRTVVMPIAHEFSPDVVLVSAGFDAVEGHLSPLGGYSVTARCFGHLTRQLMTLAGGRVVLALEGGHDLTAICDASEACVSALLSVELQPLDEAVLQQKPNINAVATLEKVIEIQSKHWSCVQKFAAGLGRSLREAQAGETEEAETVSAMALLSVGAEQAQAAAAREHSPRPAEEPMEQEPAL
T3 sequence (Q9UBN7 whole entry): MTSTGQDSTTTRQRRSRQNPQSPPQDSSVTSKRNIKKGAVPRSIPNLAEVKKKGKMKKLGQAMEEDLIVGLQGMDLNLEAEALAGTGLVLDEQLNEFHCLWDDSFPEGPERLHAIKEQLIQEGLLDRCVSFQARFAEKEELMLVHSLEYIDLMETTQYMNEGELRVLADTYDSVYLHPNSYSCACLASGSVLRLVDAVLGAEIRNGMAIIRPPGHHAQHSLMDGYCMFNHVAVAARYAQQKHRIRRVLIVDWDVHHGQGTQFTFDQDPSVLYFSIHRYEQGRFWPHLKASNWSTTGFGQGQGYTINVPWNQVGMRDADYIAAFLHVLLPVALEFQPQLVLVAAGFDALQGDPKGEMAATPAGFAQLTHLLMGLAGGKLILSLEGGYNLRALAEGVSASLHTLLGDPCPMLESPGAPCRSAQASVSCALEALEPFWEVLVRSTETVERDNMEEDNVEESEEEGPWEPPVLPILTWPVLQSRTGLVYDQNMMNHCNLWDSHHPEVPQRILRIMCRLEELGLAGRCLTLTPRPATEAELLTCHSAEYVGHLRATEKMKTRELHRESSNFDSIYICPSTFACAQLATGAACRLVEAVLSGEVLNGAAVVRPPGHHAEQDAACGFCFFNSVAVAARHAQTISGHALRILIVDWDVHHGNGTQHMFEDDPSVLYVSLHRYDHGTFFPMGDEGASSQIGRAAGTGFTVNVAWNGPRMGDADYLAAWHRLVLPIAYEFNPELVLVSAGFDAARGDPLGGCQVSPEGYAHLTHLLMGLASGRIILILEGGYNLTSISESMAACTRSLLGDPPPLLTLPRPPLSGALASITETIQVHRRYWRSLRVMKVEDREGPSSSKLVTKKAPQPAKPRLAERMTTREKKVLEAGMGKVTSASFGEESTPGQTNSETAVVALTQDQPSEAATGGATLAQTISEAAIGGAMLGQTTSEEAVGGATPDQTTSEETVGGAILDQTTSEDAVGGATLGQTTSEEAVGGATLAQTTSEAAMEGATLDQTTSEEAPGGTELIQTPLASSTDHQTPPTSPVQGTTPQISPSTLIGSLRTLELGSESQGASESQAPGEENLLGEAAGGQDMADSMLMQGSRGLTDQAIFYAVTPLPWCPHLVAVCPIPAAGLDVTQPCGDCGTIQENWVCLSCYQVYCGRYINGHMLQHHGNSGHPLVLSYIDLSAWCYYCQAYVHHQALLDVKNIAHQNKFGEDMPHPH
T5 sequence (Q9UKV0 whole entry): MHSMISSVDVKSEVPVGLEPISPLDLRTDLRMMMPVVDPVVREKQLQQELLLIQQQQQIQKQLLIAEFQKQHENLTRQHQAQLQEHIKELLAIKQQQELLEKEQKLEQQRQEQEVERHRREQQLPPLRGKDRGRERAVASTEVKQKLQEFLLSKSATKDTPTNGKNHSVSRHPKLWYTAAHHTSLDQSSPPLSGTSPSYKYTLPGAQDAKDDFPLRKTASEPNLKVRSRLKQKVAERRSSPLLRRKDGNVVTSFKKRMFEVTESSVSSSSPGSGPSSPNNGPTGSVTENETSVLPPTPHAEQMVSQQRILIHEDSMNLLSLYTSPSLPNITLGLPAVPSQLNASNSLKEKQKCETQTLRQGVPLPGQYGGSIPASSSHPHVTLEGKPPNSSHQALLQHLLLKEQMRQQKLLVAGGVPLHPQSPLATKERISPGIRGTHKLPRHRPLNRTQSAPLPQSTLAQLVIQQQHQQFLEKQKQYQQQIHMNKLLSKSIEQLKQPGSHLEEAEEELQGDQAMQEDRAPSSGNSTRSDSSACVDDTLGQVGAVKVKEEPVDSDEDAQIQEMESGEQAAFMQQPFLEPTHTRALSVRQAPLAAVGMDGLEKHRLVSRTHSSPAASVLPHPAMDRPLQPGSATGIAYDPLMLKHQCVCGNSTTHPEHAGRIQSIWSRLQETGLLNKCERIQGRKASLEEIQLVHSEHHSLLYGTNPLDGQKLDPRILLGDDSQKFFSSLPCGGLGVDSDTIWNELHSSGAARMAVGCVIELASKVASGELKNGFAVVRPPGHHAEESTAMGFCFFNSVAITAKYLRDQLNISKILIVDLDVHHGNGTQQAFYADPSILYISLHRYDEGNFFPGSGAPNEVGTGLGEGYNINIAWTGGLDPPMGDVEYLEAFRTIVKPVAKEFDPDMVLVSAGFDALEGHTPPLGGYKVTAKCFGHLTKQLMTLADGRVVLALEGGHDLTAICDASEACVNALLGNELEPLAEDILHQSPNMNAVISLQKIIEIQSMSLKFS
T4 sequence (Q9BY41 whole entry): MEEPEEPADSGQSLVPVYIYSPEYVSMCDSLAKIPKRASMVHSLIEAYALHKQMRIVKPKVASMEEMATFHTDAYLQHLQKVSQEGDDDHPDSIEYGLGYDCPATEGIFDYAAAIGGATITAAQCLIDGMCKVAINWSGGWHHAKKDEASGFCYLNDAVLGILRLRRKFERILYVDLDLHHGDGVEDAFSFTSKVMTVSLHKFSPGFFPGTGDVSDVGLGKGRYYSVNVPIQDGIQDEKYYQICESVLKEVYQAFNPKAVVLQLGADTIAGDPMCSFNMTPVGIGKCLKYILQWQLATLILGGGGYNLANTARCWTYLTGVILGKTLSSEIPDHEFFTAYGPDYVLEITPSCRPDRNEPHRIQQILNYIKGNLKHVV

As a reminder, the IC50 is the concentration needed to halve the response being measured. As for `Cc1cc(C)cc(C(=O)NOCCCCCC(=O)NO)c1` [LMK235], the 50% inhibitory concentration (IC50) in experiment [1] is over 20000 nM; in experiment [2], over 20000 nM; in experiment [3] it was 50 nM; in [4], 1120 nM; in experiment [5], over 20000 nM. For the same compound, the “AT1 transcript levels in aorta” value in experiment [6] (Ang II-infusion mice) was “not reduced”. Also, the “aortic ACE1 or AT1 expression” value in [6] (either hypertension model (Ang II mice and SHRs)) is listed as “did not affect”. Besides, the results for the U46619-induced vasoconstriction entry in experiment [7] (endothelium-denuded aortic rings) and in experiment [7] (endothelium-intact aortic rings) were “inhibited” and “dose dependently reduced”, respectively. Besides, the nitric oxide production entry in [8] is recorded as “increased nitric oxide production”. Besides, the “cyclin D1 mRNA levels induced by overexpression of CaMKIIα” value in experiment [9] (A10 cells, 1 μmol/L, 24 h) was “reduced”. The “mRNA levels of overexpressed CaMKIIα” value in [9] (A10 cells, 1000 nmol/L, 24 hours) is listed as “did not change”. For the same compound, the “mRNA expression of HDAC1, 2, 3, 4, 5, 7” value in experiment [9] (CaMKIIα-transfected A10 cells, 1 μmol/L, 24 h) was “significantly reduced”.

(Values after article PMC6433685, “Histone deacetylase inhibitor LMK235 attenuates vascular constriction and aortic remodelling in hypertension” (Journal of Cellular and Molecular Medicine, 2019).)
